Data taken from US20230413824A1, “AGROCHEMICAL COMPOSITION COMPRISING 3-SUBSTITUTED PHENYLAMIDINE COMPOUNDS AND USE THEREOF” (PI INDUSTRIES LIMITED, priority 2020, published 2023).
Like-named read-outs stand apart in the source and are kept apart here.

Experiments:
Format in all cases: in vivo
Botrytis cinerea = Botrytis cinerea test in tomato (preventive, glasshouse); settings: single compound
Erysiphe cichoracearum = Erysiphe cichoracearum test in cucumber (preventive, glasshouse); settings: single compound; for pest or weed control at 0.05 ppm / pest or weed control at 0.1 ppm: Golovinomyces cichoracearum, read-out: Observed Efficacy (%)
Alternaria solani = Alternaria solani test in tomato (preventive, glasshouse); settings: for pest or weed control at 0.05 ppm / pest or weed control at 0.1 ppm: Alternaria solani
Pyricularia oryzae = test: whole plant or invertebrate; settings: for pest or weed control at 0.05 ppm / pest or weed control at 0.1 ppm: Pyricularia oryzae, read-out: Observed Efficacy; for Observed Efficacy: single compound, preventive spray, rice
Phakopsora pachyrhizi = Phakopsora pachyrhizi test in soybean (preventive, glasshouse); settings: single compound; for pest or weed control at 0.1 ppm / pest or weed control at 0.05 ppm: Phakopsora pachyrhizi, read-out: Observed Efficacy (%)
[1] = Botrytis cinerea, Conc. 0.05 ppm, preventive spray on tomato, % control vs untreated, read-out: Observed Efficacy (%)
[2] = Table F4, Conc. 0.05 ppm, Botrytis cinerea in tomato, preventive
[3] = Table F4, Conc. 0.1 ppm, Botrytis cinerea in tomato, preventive, read-out: Observed Efficacy (%)
[4] = 0.05 ppm, preventive spray on cucumber
[5] = 0.1 ppm, preventive spray on cucumber
[6] = single compound, 0.05 ppm, preventive spray, read-out: Observed Efficacy (%)
[7] = single compound, 0.1 ppm, preventive spray, read-out: Observed Efficacy (%)
[8] = single compound, Conc. 0.05 ppm, preventive spray, read-out: Observed Efficacy
[9] = single compound, Conc. 0.1 ppm, preventive spray, read-out: Observed Efficacy
[10] = Table B3, single compound, Conc. 0.05 ppm, preventive
[11] = Table B3, single compound, Conc. 0.1 ppm, preventive
[12] = single compound, 0.05 ppm, preventive
[13] = single compound, 0.1 ppm, preventive
[14] = 0.1 ppm, preventive spray on soybean
[15] = Conc. 0.1 ppm, soybean, preventive, Table D4
[16] = Table F4, Conc. 0.1 ppm, Botrytis cinerea in tomato, preventive
[17] = Table F5, Conc. 0.05 ppm, Botrytis cinerea in tomato, preventive
[18] = Table F5, Conc. 0.1 ppm, Botrytis cinerea in tomato, preventive
[19] = Botrytis cinerea, Conc. 0.1 ppm, preventive spray on tomato, % control vs untreated, read-out: Observed Efficacy (%)
[20] = Table B4, single compound, Conc. 0.05 ppm, preventive
[21] = Table B4, single compound, Conc. 0.1 ppm, preventive
[22] = 0.05 ppm, preventive spray on soybean
[23] = Conc. 0.05 ppm, soybean, preventive, Table D4
[24] = Conc. 0.1 ppm, soybean, preventive, Table D5
[25] = Conc. 0.05 ppm, preventive spray on tomato, % control vs untreated
[26] = Conc. 0.1 ppm, preventive spray on tomato, % control vs untreated
[27] = single compound, 0.05 ppm, preventive spray
[28] = single compound, 0.1 ppm, preventive spray
[29] = single compound, Conc. 0.1 ppm, preventive spray
[30] = Conc. 0.05 ppm, soybean, preventive, Table D5

Compound	pest or weed control at 0.05 ppm (Botrytis cinerea; [1])	Observed Efficacy (%) (Botrytis cinerea; [2])	Observed Efficacy (%) (Erysiphe cichoracearum; [4])	Observed Efficacy (%) (Erysiphe cichoracearum; [5])	pest or weed control at 0.05 ppm (Alternaria solani; [6])	pest or weed control at 0.1 ppm (Alternaria solani; [7])	pest or weed control at 0.05 ppm (Alternaria solani; [8])	pest or weed control at 0.1 ppm (Alternaria solani; [9])	Observed Efficacy (%) (Alternaria solani; [10])	Observed Efficacy (%) (Alternaria solani; [11])	Observed Efficacy (%) (Alternaria solani; [12])	Observed Efficacy (%) (Alternaria solani; [13])	pest or weed control at 0.05 ppm (Pyricularia oryzae)	pest or weed control at 0.1 ppm (Pyricularia oryzae)	Observed Efficacy (%) (Phakopsora pachyrhizi; [15])	Observed Efficacy (%) (Botrytis cinerea; [16])	Observed Efficacy (%) (Alternaria solani; [20])	Observed Efficacy (%) (Alternaria solani; [21])	Observed Efficacy (%) (Phakopsora pachyrhizi; [23])	Observed Efficacy (%) (Botrytis cinerea; [25])	also measured
O=C(Nc1ccccc1-c1ccc(Cl)cc1)c1cccnc1Cl [Boscalid, boscalid]	38%	38%	24%	32%	13%	26%	13%	26%	13%	26%	13%	26%	24%	37%	32%						pest or weed control at 0.1 ppm (Botrytis cinerea; [3]): 52%; pest or weed control at 0.05 ppm (Erysiphe cichoracearum; 0.05 ppm, cucumber, preventive): 24%; pest or weed control at 0.1 ppm (Erysiphe cichoracearum; 0.1 ppm, cucumber, preventive): 32%; pest or weed control at 0.1 ppm (Phakopsora pachyrhizi; [14]): 32%
N#Cc1sc2c(=O)c3ccccc3c(=O)c=2sc1C#N [Dithionon]		38%							21%	26%						45%					Observed Efficacy (%) (Botrytis cinerea; [17]): 38%; Observed Efficacy (%) (Botrytis cinerea; [18]): 45%
CC1CC(C)(C)c2c(F)ccc(NC(=O)c3cn(C)nc3C(F)F)c21 (centres unmarked) [Fluindapyr, 3-(difluoromethyl)-N-(7-fluoro-1,1,3-trimethyl-2,3-dihydro-1H-inden-4-yl)-1-methyl-1H-pyrazole-4-carboxamide]	27%	27%	29%	38%	14%	29%			14%	29%	14%	29%	11%		30%	41%	14%	29%	20%		pest or weed control at 0.1 ppm (Botrytis cinerea; [19]): 41%; Observed Efficacy (%) (Botrytis cinerea; [17]): 27%; Observed Efficacy (%) (Botrytis cinerea; [18]): 41%; pest or weed control at 0.05 ppm (Erysiphe cichoracearum; 0.05 ppm, cucumber, preventive): 29%; pest or weed control at 0.1 ppm (Erysiphe cichoracearum; 0.1 ppm, cucumber, preventive): 38%; pest or weed control at 0.05 ppm (Phakopsora pachyrhizi; [22]): 20%; pest or weed control at 0.1 ppm (Phakopsora pachyrhizi; [14]): 30%; Observed Efficacy (%) (Phakopsora pachyrhizi; [24]): 30%
CC(O)(Cn1cncn1)c1ccc(Oc2ccc(Cl)cc2)cc1C(F)(F)F (centres unmarked) [Mefentrifluconazole, mefentrifluconazole]		31%	21%	24%					12%	26%	12%	26%				38%	12%	26%		31%	Observed Efficacy (%) (Botrytis cinerea; [26]): 38%; Observed Efficacy (%) (Erysiphe cichoracearum; 0.1 ppm, cucumber, preventive): 24%; Observed Efficacy (%) (Alternaria solani; [27]): 12%; Observed Efficacy (%) (Alternaria solani; [28]): 26%; Observed Efficacy (Alternaria solani; single compound, Conc. 0.05 ppm, preventive spray): 12%; Observed Efficacy (Alternaria solani; [29]): 26%; Observed Efficacy (Pyricularia oryzae; Conc. 0.05 ppm): 21%; Observed Efficacy (Pyricularia oryzae; Conc. 0.1 ppm): 24%
CNC(=O)/C(=N/OC)c1ccccc1Oc1ccccc1 [Metaminostorbin]																				28%	Observed Efficacy (%) (Botrytis cinerea; [26]): 40%; Observed Efficacy (%) (Phakopsora pachyrhizi; [22]): 45%; Observed Efficacy (%) (Phakopsora pachyrhizi; [14]): 56%
OC(Cc1ccccc1Cl)(Cn1nc[nH]c1=S)C1(Cl)CC1 (centres unmarked) [Prothioconazole, prothioconazole]	36%	36%			20%	31%	20%	31%	20%	31%	20%	31%	17%	33%		44%	20%	31%			pest or weed control at 0.01 ppm (Botrytis cinerea; Botrytis cinerea, Conc. 0.01 ppm, preventive spray on tomato, % control vs untreated, read-out: Observed Efficacy (%)): 44%; pest or weed control at 0.1 ppm (Botrytis cinerea; [19]): 44%
COC(=O)N(OC)c1ccccc1COc1ccn(-c2ccc(Cl)cc2)n1 [Pyraclostrobin, pyraclostrobin]				24%	21%	28%	21%	28%		28%			16%	24%							pest or weed control at 0.05 ppm (Botrytis cinerea; Table F4, Conc. 0.05 ppm, Botrytis cinerea in tomato, preventive, read-out: Observed Efficacy (%)): 38%; pest or weed control at 0.1 ppm (Botrytis cinerea; [3]): 43%; pest or weed control at 0.05 ppm (Erysiphe cichoracearum; [4]): 21%; pest or weed control at 0.1 ppm (Erysiphe cichoracearum; 0.1 ppm, cucumber, preventive): 24%
CC(C)(C)C(O)(CCc1ccc(Cl)cc1)Cn1cncn1 (centres unmarked) [Tebuconazole, tebuconazole]	35%				34%	54%	34%	54%	34%	54%	34%	54%	17%	36%	44%		34%		38%		pest or weed control at 0.1 ppm (Botrytis cinerea; [19]): 38%; pest or weed control at 0.05 ppm (Erysiphe cichoracearum; [4]): 29%; pest or weed control at 0.05 ppm (Phakopsora pachyrhizi; [22]): 38%; pest or weed control at 0.1 ppm (Phakopsora pachyrhizi; [14]): 44%; Observed Efficacy (%) (Phakopsora pachyrhizi; [30]): 38%; Observed Efficacy (%) (Phakopsora pachyrhizi; [24]): 44%
mancozeb		19%	24%	29%					14%	16%	14%	16%			15%	24%	14%	16%	12%	19%	Observed Efficacy (%) (Botrytis cinerea; [26]): 24%; Observed Efficacy (%) (Erysiphe cichoracearum; 0.05 ppm, cucumber, preventive): 24%; Observed Efficacy (%) (Erysiphe cichoracearum; 0.1 ppm, cucumber, preventive): 29%; Observed Efficacy (%) (Alternaria solani; [27]): 14%; Observed Efficacy (%) (Alternaria solani; [28]): 16%; Observed Efficacy (Alternaria solani; [29]): 16%; Observed Efficacy (%) (Phakopsora pachyrhizi; [22]): 12%; Observed Efficacy (%) (Phakopsora pachyrhizi; [14]): 15%; Observed Efficacy (%) (Phakopsora pachyrhizi; [30]): 12%; Observed Efficacy (%) (Phakopsora pachyrhizi; [24]): 15%
metiram		40%	47%	55%											37%	57%	26%	30%	17%	40%	Observed Efficacy (%) (Botrytis cinerea; [26]): 57%; Observed Efficacy (%) (Erysiphe cichoracearum; 0.05 ppm, cucumber, preventive): 47%; Observed Efficacy (%) (Erysiphe cichoracearum; 0.1 ppm, cucumber, preventive): 55%; Observed Efficacy (%) (Alternaria solani; [27]): 26%; Observed Efficacy (%) (Alternaria solani; [28]): 30%; Observed Efficacy (Pyricularia oryzae; Conc. 0.05 ppm): 16%; Observed Efficacy (Pyricularia oryzae; Conc. 0.1 ppm): 18%; Observed Efficacy (%) (Phakopsora pachyrhizi; [22]): 17%
